{"source": "patent US20240197871A1", "about": "“COMBINATION OF A CAR T CELL THERAPY AND AN IMMUNOMODULATORY COMPOUND FOR TREATMENT OF LYMPHOMA” (Juno Therapeutics, Inc., priority 2021, published 2024)", "key": {"anti-CD19 CAR T cells [1]": {"test_system": "anti-CD19 CAR T cells", "test": "Proliferation (cell doublings) of stimulated anti-CD19 CAR T cells, IncuCyte", "format": "cell-based, human", "description": "(§1) Anti-CD19 CAR-expressing T cell compositions were generated from three different healthy donors as described in Example 1. Prior to use, cryopreserved CD4+ and CD8+ engineered cell compositions were thawed and combined at approximately a 1:1 CD4:CD8 ratio.\n(§2) Following incubation, stimulated CAR T cells were harvested, washed twice in media, and assessed.\nProliferation of T cells during culture with the plate-bound anti-idiotypic antibody was monitored for seven days using an IncuCyte® Live Cell Analysis System (Essen BioScience Inc.), and the number of cell doublings of cells stimulated with 30 μg/mL of anti-idiotypic antibody is shown in FIG. 2B and FIG. 2C for the three donors (mean±SEM)."}, "[2]": {"test_system": "Granta-519 lymphoma tumor spheroids or A549 tumor spheroids", "test": "Chronic stimulation with rescue treatment during re-challenge with tumor spheroids", "format": "cell-based", "description": "Anti-CD19 CAR-expressing T cells, produced as described in Example 1, were chronically stimulated as described in Example 3, but in the absence of Compound C during stimulation. Instead, chronically stimulated CAR T cells were treated with Compound C during re-challenge with Granta-519 lymphoma tumor spheroids or A549 tumor spheroids, after which cytolytic activity, cytokine production, and gene expression of the CAR T Cells was assessed.\nFIGS. 4B and 4C show the volume of tumor spheroids co-cultured with anti-CD19 CAR T cells in the presence of Compound C."}, "anti-CD19 CAR T cells [3]": {"test_system": "anti-CD19 CAR T cells", "test": "Viability of anti-CD19 CAR T cells stimulated with anti-idiotypic antibody (live/dead dye)", "format": "cell-based, human", "settings": "Day 3 of culture; 3 or 30 μg/mL anti-idiotypic antibody; three donors", "description": "as §1, §2\nViability was assessed at Day 3 of culture by flow cytometry using a live/dead cell dye. As shown in FIG. 2A for the three donors (mean±SEM), the compounds had no effect on cell viability when stimulation was carried out either with 3 μg/mL of anti-idiotypic antibody (left panel) or with 30 μg/mL of anti-idiotypic antibody (right panel)."}, "[4]": {"test_system": "chronically stimulated anti-CD19 CAR T cells", "test": "RNA-seq gene expression of chronically stimulated CAR T cells", "format": "cell-based, human", "description": "Five days after re-challenge, CAR T cells were sorted from tumor spheroids, and gene expression was analyzed by RNA sequencing (RNA-seq). Libraries for RNA-seq were sequenced, and reads were mapped to the Genome Reference Consortium Human Build 38 (GRCh38) human reference genome. Gene expression levels were quantified, and differential expression was performed using DESeq2. Gene expression was compared between chronically stimulated CAR T cells treated with Compound C during stimulation and untreated chronically stimulated CAR T cells, as well as between untreated chronically stimulated CAR T cells and non-stimulated CAR T cells. Differential expression was calculated based on treatment effects with 1 nM and 10 nM of the compounds. Differential locus selection cut offs were q≤0.05 and absolute log2 fold change ≥0.5.\nPathway analysis of CAR T RNA-seq data using the Kyoto Encyclopedia of Genes and Genomes (KEGG) was also performed using clusterProfiler. Pathways whose upregulation by chronic stimulation was prevented or reduced by treatment with Compound C are shown in FIG. 3J and include specific cell proliferation pathways. Gene ratios as shown in FIG. 3J were calculated as the percentage of significant genes over total genes in a given pathway.\nGene expression of chronically stimulated CAR T cells was also analyzed by RNA sequencing as in Example 3. […]"}, "Ikaros": {"target": "T1, Ikaros (Homo sapiens, UniProt Q13422+Q96SW2)", "T1 construct": "analyzed by flow cytometry to assess intracellular levels of Ikaros and Aiolos in CAR+ T cells; endogenous in cells; host or cells: primary human CD4+ and CD8+ T cells from healthy donors, lentivirally transduced with an anti-CD19 CAR", "T1 sequence (Q13422 whole entry)": "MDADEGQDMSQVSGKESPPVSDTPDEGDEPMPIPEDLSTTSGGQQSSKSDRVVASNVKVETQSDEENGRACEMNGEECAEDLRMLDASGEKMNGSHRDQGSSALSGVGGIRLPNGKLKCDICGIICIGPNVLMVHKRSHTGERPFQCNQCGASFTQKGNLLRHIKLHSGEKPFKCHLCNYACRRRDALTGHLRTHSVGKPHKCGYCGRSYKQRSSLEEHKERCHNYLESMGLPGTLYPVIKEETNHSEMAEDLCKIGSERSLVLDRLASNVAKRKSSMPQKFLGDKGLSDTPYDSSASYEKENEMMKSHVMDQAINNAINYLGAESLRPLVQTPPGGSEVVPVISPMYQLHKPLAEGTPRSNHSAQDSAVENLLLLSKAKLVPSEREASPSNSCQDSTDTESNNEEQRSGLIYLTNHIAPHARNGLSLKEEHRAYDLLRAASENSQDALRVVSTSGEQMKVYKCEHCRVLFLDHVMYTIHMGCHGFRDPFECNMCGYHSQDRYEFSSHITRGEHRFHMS", "T1 sequence (Q96SW2 whole entry)": "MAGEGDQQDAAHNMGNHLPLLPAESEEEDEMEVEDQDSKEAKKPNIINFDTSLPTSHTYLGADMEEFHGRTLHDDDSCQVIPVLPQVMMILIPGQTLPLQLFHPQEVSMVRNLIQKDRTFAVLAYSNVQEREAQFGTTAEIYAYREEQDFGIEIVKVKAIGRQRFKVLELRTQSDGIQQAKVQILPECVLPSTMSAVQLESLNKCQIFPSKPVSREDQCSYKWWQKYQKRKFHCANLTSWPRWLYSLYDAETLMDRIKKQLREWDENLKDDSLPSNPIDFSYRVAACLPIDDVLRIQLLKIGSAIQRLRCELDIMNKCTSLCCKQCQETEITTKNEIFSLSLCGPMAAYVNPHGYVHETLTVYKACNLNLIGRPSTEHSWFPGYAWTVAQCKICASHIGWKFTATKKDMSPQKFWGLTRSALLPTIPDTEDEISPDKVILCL", "T1 sequence (Q16531 whole entry partner)": "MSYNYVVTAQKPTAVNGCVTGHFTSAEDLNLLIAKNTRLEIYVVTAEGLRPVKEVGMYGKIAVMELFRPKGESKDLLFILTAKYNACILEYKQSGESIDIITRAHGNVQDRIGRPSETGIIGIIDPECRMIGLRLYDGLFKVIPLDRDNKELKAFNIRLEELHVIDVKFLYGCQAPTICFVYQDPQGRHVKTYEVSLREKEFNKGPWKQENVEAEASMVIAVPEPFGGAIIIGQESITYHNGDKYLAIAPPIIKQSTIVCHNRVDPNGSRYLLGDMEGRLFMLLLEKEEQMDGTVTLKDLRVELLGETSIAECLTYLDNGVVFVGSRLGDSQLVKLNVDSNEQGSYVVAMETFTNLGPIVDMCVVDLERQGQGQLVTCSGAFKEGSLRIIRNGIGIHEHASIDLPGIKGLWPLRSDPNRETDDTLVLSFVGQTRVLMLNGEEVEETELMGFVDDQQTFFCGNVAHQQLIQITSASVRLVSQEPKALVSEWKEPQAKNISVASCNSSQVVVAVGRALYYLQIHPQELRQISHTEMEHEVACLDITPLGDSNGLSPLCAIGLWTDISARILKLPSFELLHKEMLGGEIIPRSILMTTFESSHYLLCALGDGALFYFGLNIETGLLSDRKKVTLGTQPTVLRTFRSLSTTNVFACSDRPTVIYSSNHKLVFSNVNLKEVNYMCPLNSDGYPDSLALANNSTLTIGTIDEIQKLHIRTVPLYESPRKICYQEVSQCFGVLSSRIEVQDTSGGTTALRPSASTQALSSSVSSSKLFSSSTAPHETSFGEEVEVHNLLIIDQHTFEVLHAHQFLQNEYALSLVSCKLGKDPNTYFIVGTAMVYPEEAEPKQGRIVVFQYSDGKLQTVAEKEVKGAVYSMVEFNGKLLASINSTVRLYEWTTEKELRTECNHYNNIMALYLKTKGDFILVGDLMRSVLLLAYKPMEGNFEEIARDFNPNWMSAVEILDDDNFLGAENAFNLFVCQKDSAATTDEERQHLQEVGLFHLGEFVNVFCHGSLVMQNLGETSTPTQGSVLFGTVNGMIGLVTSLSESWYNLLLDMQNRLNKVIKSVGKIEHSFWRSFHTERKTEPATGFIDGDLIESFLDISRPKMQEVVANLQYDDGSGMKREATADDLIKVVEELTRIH", "test": "Ikaros levels in anti-CD19 CAR T cells after 24-hour or six-day exposure", "format": "cell-based", "description": "Due to the robust impact of Compound C on degradation of Ikaros and Aiolos, in which excessive or sustained treatment may impact CAR T cell function negatively and/or cause neutropenia secondary to neutrophil maturation arrest, an intermittent dosing schedule for treatment with Compound C was evaluated for its ability to effect deep, but transient degradation of Ikaros. To do so, the pharmacokinetics of a weekly (Q7D) 0.3-mg dose of Compound C were modelled. […] The effects of a weekly 0.3-mg dose of Compound C on neutrophil development were also modelled.\nFIGS. 6B and 6C show Ikaros levels in anti-CD19 CAR T cells, generated as described in Example 1, following 24-hour (FIG. 6B) or six-day exposure (FIG. 6C) to Compound C."}, "[5]": {"test_system": "Granta-519 lymphoma tumor spheroids", "test": "Concentration levels: tumor cell number during re-challenge, concurrent or rescue treatment", "format": "cell-based", "description": "Different concentrations of Compound C were tested for their effects on cytolytic function of CAR T cells following chronic stimulation. CAR T cells were treated with various concentrations of Compound C either during or after chronic stimulation.\nAnti-CD19 CAR-expressing T cells, produced as described in Example 1, were chronically stimulated as described in Example 3 (with Compound C present during chronic stimulation), then re-challenged with Granta-519 lymphoma tumor spheroids in the absence of Compound C (concurrent treatment group). In addition, anti-CD19 CAR-expressing T cells were chronically stimulated as described in Example 4 (with Compound C absent during chronic stimulation), then re-challenged with Granta-519 lymphoma tumor spheroids in the presence of Compound C (rescue treatment group). During re-challenge, cytolytic activity was assessed by tumor cell number at various times during co-culture with CAR-T cells.\nIn both treatment conditions, tumor cell number was reduced compared to control conditions for CAR T cells treated with Compound C at a 0.001 μM concentration. Also in both treatment groups, tumor cell number was higher compared to control conditions for CAR T cells treated with Compound C at 0.01 μM and 0.1 μM concentrations."}}, "data": [{"smiles": "O=C1CC[C@H](N2C(=O)c3cccc(NCc4ccc(CN5CC(N6CCOCC6)C5)cc4F)c3C2=O)C(=O)N1", "note": "[Compound C, (S)-2-(2,6-dioxopiperidin-3-yl)-4-((2-fluoro-4-((3-morpholinoazetidin-1-yl)methyl)benzyl)amino)isoindoline-1,3-dione]", "values": [{"measurement": "CAR T cell proliferation", "setting": "anti-CD19 CAR T cells [1]; 1 nM, P<0.001", "value": "decreased"}, {"measurement": "CAR T cell proliferation", "setting": "anti-CD19 CAR T cells [1]; 10 nM, P<0.0001", "value": "further decreased"}, {"measurement": "decrease of cell doublings compared with the other compounds", "setting": "anti-CD19 CAR T cells [1]; at all doses tested", "value": "greatest decrease of doublings"}, {"measurement": "tumor volume vs chronically stimulated CAR T cells alone or compound alone", "setting": "[2]; 1 nM during re-challenge (rescue) with CAR T cells, P<0.0001", "value": "more reduced"}, {"measurement": "IFNγ cytokine production five days after re-challenge", "setting": "[2]; 1 nM during re-challenge (rescue), P<0.0001", "value": "highest"}, {"measurement": "tumor volume vs chronically stimulated CAR T cells alone or compound alone", "setting": "[2]; 10 nM during re-challenge (rescue) with CAR T cells, P<0.0001", "value": "more reduced"}, {"measurement": "IFNγ cytokine production five days after re-challenge", "setting": "[2]; 10 nM during re-challenge (rescue), P<0.05", "value": "increased"}, {"measurement": "cell viability (percentage of live CAR T cells)", "setting": "anti-CD19 CAR T cells [3]", "value": "without affecting CAR T cell viability"}, {"measurement": "gene expression vs untreated chronically stimulated CAR T cells (RNA-seq)", "setting": "[4]; treatment during chronic stimulation (concurrent), 1 nM and 10 nM", "value": "altered gene expression"}, {"measurement": "gene expression vs untreated chronically stimulated CAR T cells (RNA-seq)", "setting": "[4]; treatment during re-challenge (rescue)", "value": "altered gene expression"}, {"measurement": "Ikaros levels in anti-CD19 CAR T cells", "setting": "Ikaros; 24-hour exposure, dose levels as low as 0.01 μM", "value": "lead to Ikaros degradation"}, {"measurement": "Ikaros levels in anti-CD19 CAR T cells", "setting": "Ikaros; six-day exposure to 0.001 μM", "value": "did not affect Ikaros levels"}, {"measurement": "tumor cell number compared to control conditions", "setting": "[5]; concurrent treatment, 0.001 μM", "value": "reduced"}, {"measurement": "tumor cell number compared to control conditions", "setting": "[5]; concurrent treatment, 0.01 μM", "value": "higher"}, {"measurement": "tumor cell number compared to control conditions", "setting": "[5]; concurrent treatment, 0.1 μM", "value": "higher"}, {"measurement": "tumor cell number compared to control conditions", "setting": "[5]; rescue treatment, 0.001 μM", "value": "reduced"}, {"measurement": "tumor cell number compared to control conditions", "setting": "[5]; rescue treatment, 0.01 μM", "value": "higher"}, {"measurement": "tumor cell number compared to control conditions", "setting": "[5]; rescue treatment, 0.1 μM", "value": "higher"}]}]}
